Reference: patent US9642875B2, “Compounds and their effects on appetite control and insulin sensitivity” (priority 2012, dated 2017)
“Also recorded” adds a separate entry of the source. Read-outs that look alike come from different tables or passages of the source.

How the values were obtained:
[1] = Source text: Healthy men and women aged 40-65 years, with a BMI of 25-40 kg/m^2 were recruited from the general public. Potential subjects were excluded if they had clinically significant illnesses (including type 1 or type 2 diabetes), were taking medication known to affect appetite and/or body weight, a weight loss of 3 kg or greater in the preceding two months, smoking, substance abuse, psychiatric illness, restrained eating (Dutch eating behavior questionnaire: male score >2.25; female score >2.80), and any abnormalities detected on physical examination, electrocardiography, or screening blood tests (measurement of complete blood count, electrolytes, fasting glucose, thyroid function and liver function). Women were ineligible if they were pregnant or breast-feeding. […] The study was carried out in accordance with the Declaration of Helsinki.
The study was conducted in a randomized, double-blind, placebo-controlled, parallel design. Two-day study visits were required at baseline (week 0) and after 24 weeks of dietary supplementation. On the day prior to each study visit, subjects were asked to consume a standard evening meal, fast overnight from 22:00 and to avoid strenuous physical activity and alcohol. All study visits commenced between 08:00 and 09:00. […] The dietary supplement was supplied to subjects in ready-to-use sachets and they were instructed to mix the contents into their normal diet once a day during the 24 week treatment period. All subjects were instructed to maintain their usual dietary and activity habits during the intervention period. […] After 8 and 16 weeks of the intervention period, subjects were invited to attend follow-up visits to record body weight and monitor compliance and gastrointestinal side-effects. After 24 weeks, measurements taken at baseline were repeated. Subjects returned all their used and unused sachets to estimate compliance. Symptom diary was also collected over the period of the study.
At study visits, a cannula was inserted into an antecubital vein and baseline blood samples were collected at −10 and 0 min to assess plasma concentrations of glucose, insulin, PYY and GLP-1. Following the 0 min sample, subjects were served a standardized breakfast (398 kcal; 71.2 g CHO, 7.9 g fat, 10.3 g protein). […] Postprandial blood samples were taken at 15, 30, 60, 90, 120, 180, 240 and 300 min and collected into heparin-coated tubes containing 0.2 ml of aprotinin (Bayer, UK). GLP-1- and PYY-like immunoreactivity was measured using specific and sensitive in-house radioimmunoassays. Insulin-like immunoreactivity was measured using an ultra-sensitive human insulin radioimmunoassay (Millipore) and plasma glucose was measured using an Abbott Architect ci8200 analyser (Abbott Diagnostics, USA). At 300 min subjects were offered a buffet lunch with food served in excess and subjects were asked to eat until they were comfortably full. The amount of food was quantified and energy intake calculated. Subjective hunger, satiety, and nausea were monitored with the use of 100 mm visual analog scales (VAS). Subjects were asked to complete the VAS before each blood sample. In addition, breath H2 was measured at 0, 60, 120, 180, 240 and 300 min (Bedfont Scientific, Kent UK) in a subset of each group (9 in the propionate ester group, 8 in the inulin control group).
Body composition was assessed using magnetic resonance imaging (MRI) and spectroscopy (MRS). […] Body weight was measured in all subjects to the nearest 0.1 kg (TBF-300, Tanita) and taken while subjects were wearing light clothing.

[2] = test system: Bacteroides/Prevotella (Bac303); assay: faecal batch culture fermentation with fluorescent in situ hybridisation; assay type: cell-based; settings: all sampling points
Procedure: (§1) Faecal samples were obtained from three healthy human volunteers (one female and two males; age 30-50 years; BMI 25-31). Volunteers were excluded if they suffered from any gastrointestinal disorder (e.g. ulcerative colitis, Crohn's disease, irritable bowel syndrome, peptic ulcers and cancer) and/or had taken antibiotics in the six months preceding sample donation. Samples were kept under anaerobic conditions (10% H2, 10% CO2 and 80% N2) and used within a maximum of 30 minutes following collection. Samples were diluted 1/10 w/w in anaerobic PBS (0.1 mol/1 phosphate buffer solution, pH 7.4) and homogenised in a stomacher (Stomacher 400, Seward, West Sussex, UK) for 2 minutes at normal speed.
(§2) Sterile batch culture fermenters (150 ml working volume) were set up in parallel and aseptically filled with 135 ml pre-reduced, sterile basal culture medium (peptone water 2 g/1 (Oxoid), yeast extract 2 g/1 (Oxoid, Basingstoke, UK), NaCl 0.1 g/l, K2HPO4 0.04 g/l, KH2PO4 0.04 g/l, MgSO4.7H2O 0.01 g/l, CaCl2.6H2O 0.01, NaHCO3 2 g/l, Tween 80 2 ml (BDH, Poole, UK), haemin 0.05 g/1, vitamin K1 10 cysteine.HCl 0.5 g/1, bile salts 0.5 g/1). The fermenters were gassed overnight with O2 free N2. […] A substrate-free vessel was set up for each volunteer as the negative control.

[3] = test system: Atopobium cluster (Ato291); assay: as above; assay type: cell-based; settings: between 10 and 34 h
Procedure: as §1, §2

[4] = assay type: in vivo, human; settings: 10 g, 24 hour pooled urine, n=5
Procedure: The mean (±SEM) age, weight and body mass index (BMI) was 32±4 years, 75.0±4.0 kg and 25.0±1.3 kg/m^2, respectively.
(§3) The inclusion criteria for the investigation were a BMI of 20 to 35 kg/m^2 and 21 to 65 years of age.
Subjects were studied on four occasions one week apart. […] Cumulative ^13CO2 excretion was also calculated. Blood was collected serially throughout the study.
Plasma was collected at −15, 0, 15, 30, 60, 90, 120, 180, 240, 300, 360 min for analysis of ^13C propionate enrichment by GC-combustion-IRMS (GC-C-IRMS). Acetate ^13C enrichment was also measured in the same analysis as a control for dietary influence on SCFA ^13C enrichment and for evidence of inter-conversion between propionate and acetate. Data were expressed as δ^13C (per mil or ‰) which represents the change in the measured ratio in parts per thousand from the internationally accepted standard carbon Vienna Pee Dee Belemnite (VPDB). Urine was analyzed for ^13C propionate by GC-C-IRMS. Urine was collected and pooled from just before consumption of the propionate ester for a period of 24 hours. Two 25 ml aliquots were collected and stored at −20° C. until analysis. Isotopic enrichment was expressed as δ^13C (‰). SCFA concentrations (mmol/L) were measured relative to an internal standard (3-methyl valerate).

[5] = test system: Bifidobacterium spp (Bif164); assay: faecal batch culture fermentation with fluorescent in situ hybridisation; assay type: cell-based
Procedure: as §1
Sterile batch culture fermenters (150 ml working volume) were set up in parallel and aseptically filled with 135 ml pre-reduced, sterile basal culture medium (peptone water 2 g/1 (Oxoid), yeast extract 2 g/1 (Oxoid, Basingstoke, UK), NaCl 0.1 g/l, K2HPO4 0.04 g/l, KH2PO4 0.04 g/l, MgSO4.7H2O 0.01 g/l, CaCl2.6H2O 0.01, NaHCO3 2 g/l, Tween 80 2 ml (BDH, Poole, UK), haemin 0.05 g/1, vitamin K1 10 cysteine.HCl 0.5 g/1, bile salts 0.5 g/1). The fermenters were gassed overnight with O2 free N2. Propionate inulin ester and inulin control substrates ( 1/10 w/v) were added to their respective fermenters just prior to the addition of the faecal slurry. […]

[6] = assay type: in vivo, human
Procedure: Twenty healthy subjects (15 males and 5 females) were recruited for the food intake investigation. The mean (±SEM) age, weight and body mass index (BMI) was 31±2 years, 75.0±3.0 kg and 25.4±0.8 kg/m^2, respectively.
as §3
The study was performed in a randomized, double-blind, crossover manner, with each subject studied on two occasions >4 days apart. […] The amount of food was quantified preprandially and postprandially, and energy intake was calculated. […] In addition, VAS were also completed to assess the palatability of the standardized breakfast.
Differences in energy intake and incremental area under the curve (iAUC) for plasma hormone levels and VAS between trials were assessed using Paired Student's t tests. […] Significant effects were followed up by post hoc comparisons (Dunnett). P values<0.05 were considered statistically significant. Data are presented as means±SEM.

[7] = 24 weeks vs baseline, fasting blood, listed as control
[8] = 10 g, 0-420 minute post oral administration, 20 subjects

inulin
body weight gained ([1]; 10 g/day, after 24 weeks): 0.38 ± 0.69 kg | breath hydrogen area under curve ([1]; 24 weeks): 5000±1480 | fasting breath hydrogen ([1]; 24 weeks): 19.1±7 ppm | fasting glucose, insulin, HbA1c and triglyceride concentrations ([1]; 24 weeks): no significant effect | alanine transaminase [1, 7]: significantly reduced; also recorded: significant improvements | alkaline phosphatase [1, 7]: significantly reduced; also recorded: significant improvements | total cholesterol [1, 7]: significantly reduced; also recorded: significant improvements | subjects with substantial weight gain (≧5% baseline weight) ([1]; 24 weeks, number of subjects): 4 of 24 | subjects with weight gain ≧3% baseline weight ([1]; 24 weeks, number of subjects): 6 of 24 | ratio of internal adipose tissue:subcutaneous adipose tissue, within group ([1]; 24 weeks, p=0.002): significantly increased | internal adipose tissue, within group ([1]; 24 weeks, p=0.049): significantly increased | subjects with substantial weight gain (≧5% baseline weight) ([1]; 24 weeks, proportion): 17% | subjects with weight gain ≧3% baseline weight ([1]; 24 weeks, proportion): 25% | breath hydrogen area under curve ([1]; baseline): 2355±800 | fasting breath hydrogen ([1]; baseline): 9±3 ppm | GLP-1 ΔAUC0-300 min ([1]; baseline (week 0)): 3441 ± 843 pmol/L | food intake at buffet lunch ([1]; baseline (week 0)): 678 ± 69 kcal | insulin response AUC0-300 min ([1]; baseline (week 0)): 9285±882 μU/mL | plasma PYY ΔAUC0-300 min ([1]; baseline (week 0)): 962 ± 869 pmol/L | glycemic response AUC0-300 min ([1]; baseline (week 0), standardized breakfast): 1600 ± 51 pmol/L | plasma PYY and GLP-1 release, week 24 vs baseline ([1]; postprandial period, within group): unaffected | GLP-1 ΔAUC0-300 min ([1]; week 24): 2278 ± 1000 pmol/L | bloating and flatulence (side effect profile) ([1]; week 24): significant increase | food intake at buffet lunch ([1]; week 24): 651 ± 64 kcal | insulin response AUC0-300 min ([1]; week 24): 8781±731 μU/mL | plasma PYY ΔAUC0-300 min ([1]; week 24): 656 ± 880 pmol/L | glycemic response AUC0-300 min ([1]; week 24, standardized breakfast): 1691 ± 54 pmol/L | reduction of food intake ([1]; week 24 vs baseline): 4.0% | insulin response, week 24 vs baseline ([1]; within group): not significantly different | postprandial glucose (glycemic) response, week 24 vs baseline ([1]; within group, listed as control): significantly greater; also recorded: significant deterioration | Bac303 labelled cells compared to baseline [2]: significant increases | Ato291 labelled cells compared to baseline [3]: increased significantly | urine 13C propionate enrichment δ13C [4]: −23.3±1.8 ‰ | Bif164 labelled cells compared to baseline ([5]; all time points (10, 24, 34, 48 h)): significantly increased | Bif164 levels compared to propionate inulin ester cultures ([5]; throughout fermentation): significantly higher | fullness ratings, average iAUC [6, 8]: 26.6±2.9 | hunger ratings, average iAUC [6, 8]: −24.3±4.7 | pleasantness ratings, average iAUC [6, 8]: −26.6±4.6 | prospective food intake ratings, average iAUC [6, 8]: −19.9±3.6 | sickness ratings, average iAUC [6, 8]: −1.6±1.4 | glucose levels, average iAUC ([6]; 10 g, whole meal test): 0.28±0.12 | insulin levels, average iAUC ([6]; 10 g, whole meal test): 32.5±4.7 | food intake during standardised ad libitum buffet meal ([6]; 7 hours after intake of 10 g supplement, 20 subjects, mean±SEM): 1175 ± 104 kcal
